System: IL-8 mRNA
Assay: IL-8 mRNA assay (Quantigene reagent set) quantified by automated image processing
Format: cell-based
Text: Through use of inexpensive reagents and simple protocols a transcription assay can be conducted in which mRNA is synthesized and then captured. The location and number of individual mRNA species captured can be visualized in cells and tissue sections by fluorescence-based detection and quantified by automated image processing.
For visualization in images, a probe is used which binds to target mRNA species with very high specificity. It is possible to generate probes to virtually any known sequence. Preferably, such probes are hybridized to the target mRNAs in cell or tissue samples that have been fixed and permeabilized. A fluorescent reagent may then added, which binds to the probe. When slides and well plates containing cultured cells are processed in this manner, and viewed with fluorescence microscopy, bright spots (mRNA loci) are apparent that correspond to individual copies of the target mRNA.
To quantify gene transcription, the mRNA loci can be individually counted for each cell. While this can be done manually, by loading such images in a general purpose image analysis program, manual analysis is very laborious and time consuming due to fatigue and inconsistency between researchers. A convenient, user-friendly, and accurate alternative may be provided by an image processing algorithm, which may be in the form of a Windows® compatible, Java-based software system, specifically engineered for this application. With reference to FIG. 1, for example, such a system identifies individual cells, and quantifies the number of mRNA loci on a per cell basis in fields of view imaged for nuclei (shown in blue with DAPI staining), and for mRNA (shown in green using fluorescent reagents). Results produced by such a system may be input into a quantitative modeling system (such as a spreadsheet process) in order to organize, quantify, model, and present the results for interpretation and analysis.
FIG. 2 illustrates the performance of an mRNA assay and quantification by an image processing algorithm in an experimental setting, using a Quantigene® reagent set available from Panomics, Inc., Fremont, Calif. and an automated image processing system available from Vala Sciences, Inc. In this assay, cells were exposed to different concentrations of phorbol 12-myristate 13-acetate (PMA), and analyzed for the copy number of IL-8 mRNA. For control cells (exposed to 0 PMA), essentially no IL-8 mRNA were detected (0.05/cell). In contrast, exposure to PMA led to a dramatic increase in the presence of the loci with an EC50 of between 0.1 and 1 ng/ml PMA.
FIG. 6 illustrates in a general way how an image processing algorithm may operate to obtain results from images in the source folder. An example of one such algorithm designed for processing images of mRNA transcription is the CyteSeer™-ViewRNA process available from Vala Sciences, Inc. The algorithm starts with a nuclear image (such as those in the left panels of FIGS. 1 and 2), and identifies all of the nuclei within the field of view. A nuclear mask for each cell is established. […] One or more sets of experimental data may then be calculated by the automated image processing system, on a per cell basis, using the result images or masks. Preferably, these experimental data are presented and arranged according to a file convention and are placed into one or more files that can be transported, loaded, or otherwise made available to a quantitative modeling system (for example, a spreadsheet process). […]

With CCCCCCCCCCCCCC(=O)O[C@@H]1[C@@H](C)[C@@]2(O)[C@@H](C=C(CO)C[C@]3(O)C(=O)C(C)=C[C@@H]23)[C@@H]2C(C)(C)[C@]12OC(C)=O [PMA, phorbol 12-myristate 13-acetate] the RNA spot count (0.1 ng/ml PMA, well E15) was 14.3 spots/cell, the “fold increase in Area Rm” value (1 ng/ml PMA vs control well C15) was 3000 fold and the RNA spot count (1 ng/ml PMA, well G15) was 84.1 spots/cell. For the same molecule, the “Area Rm, the average area, per cell, of the RNA mask” value (1 ng/ml PMA, well G15 (control well C15 <1)) was over 1100 and the “fold increase in TII Ri Rm, the total intensity of the spots/cell” value (PMA vs control (Table in FIG. 12)) was 8000 fold.

Reference: patent US8107711B2, “User interface method and system for management and control of automated image processing in high content screening or high throughput screening” (Vala Sciences, Inc., priority 2008, dated 2012)
